Assay results as given in patent US5466667A, “Prophylactic and therapeutic methods for treating edema with antamanides” (priority 1993, dated 1995).
“Also recorded” adds a separate entry of the source. Residues, ends and D or L forms follow the SMILES beside them.

Experiments:
endothelial cells = details: cited from earlier work
endothelial cell = details: physiological titers and concentrations; cited from earlier work
[1] = tested on: endothelial actin cytoskeleton; details: cited from earlier work
[2] = cited from earlier work
[3] = tested on: bovine aortic endothelial cells (BAEC); experiment: Microfilament and cell surface area measurement in cultured endothelial cells (rhodamine-phalloidin fluorescence microscopy); assay type: cell-based
Description: Bovine abdominal aortas were clamped and tied in-situ and dissected free of the supporting adventitia. Aortas were transported from the abbatoir on ice. Endothelial cells were harvested by gentle ablation of the endothelium following the technique of Shepro et al. [Anat. Rec. 178:523 (1974)]; digested with 0.1% collagenase; and then pelleted and seeded onto 100 mm diameter tissue culture dishes using conventional techniques. The cell medium consisted of DULBECCO'S MODIFIED EAGLES'S MEDIUM medium (hereinafter "DME") at pH 7.4 supplemented with 10% fetal calf serum (hereinafter "FCS"), 0.1% of penicillin, 0.7% streptomycin, 0.1% amphotericin, and 0.1% glutamine. The cell media was replaced every 3 days. The cells were incubated at 37° C. in a 10% carbon dioxide, 90% ambient atmosphere (100% humidified).
This amount of confluency permits excellent visualization of cell spreading and stressed fibers. Individual confluent layers of cells were then treated with 1 uM Phallin A for 30 minutes duration; then fixed in 3.7% phosphate-buffered formaldehyde (pH 7.4) for 15 minutes. The cells on each coverslip were then permeabilized in extraction buffer (composed of 0.5M KCl, 1% triton X-100, 10 mM MgCl2, and 1 mg/ml tosyl-arginine methyl ester (hereinafter "TAME"); 17 ug/ml toluene-sulfonyl fluoride (hereinafter "TSF"); and 0.25 mg/ml DNAse 1 in PBS for a period of 10 minutes. Subsequently, this extraction buffer was removed and the cells washed three times in sequence with PBS. The cells were then stained with Rhodamine-phalloidin (an F-active specific fluorescent probe, Molecular Probes, Inc., Junction City, Oreg.) at 1 unit/200 ul per coverslip for 39 minutes duration. Subsequently, the coverslips were washed five times consecutively in PBS; mounted in a 1:1 ratio mixture of PBS/glycerol; and sealed. The cultured cells on each coverslip were illuminated for fluorescence microscopy. […] For comparative purposes, 1.0 uM of phalloidin (also known as Phallin B) or a mixture of Phallin A and Phhallin B, and PBS alone as the control was similarly evaluated. […] Clearly, the use of Phallin A at concentrations of 10^-6 to 10^-7 M is non-toxic to the cultured endothelial cells.

[4] = tested on: bovine aortic endothelial cells (BAEC); experiment: Permeability assay: TBA (trypan blue-albumin) uptake by BAEC-covered microcarrier beads; assay type: cell-based; details: 1 uM, 30 minutes, versus untreated controls and mixture of phalloidin and Phallin A, FIG. 2
Procedure: Bovine aortic endothelial cells (BAEC) were prepared, cultured, and harvested as described within Experiment 1. Subsequently, BAEC were subcultured a maximum of three times before seeding onto CYTODEX 3 microcarrier beads (Pharmacia, Inc. ) . Microcarrier beads were suspended in cell media at a concentration of 40,000 microcarriers per milliliter. Beads were suspended by stirring, using a magnetic stirrer. BAEC were seeded onto the beads at the minimum density of 15 cells per bead and allowed to reach confluency. Subsequently, BAEC covered beads were allowed to incubate for 6 days post-confluency to obtain near maximum barrier function of the cell monolayers on the beads. After this incubation period, the BAEC covered beads were ready for use within permeability experiments. […]
BAEC barrier function was measured by TBA uptake per bead; therefore, it is necessary to standardize the number of beads per milliliter. […] Standard curves for absorbance as a function of bead concentration provides a linear relationship as a basis for comparison and extrapolation. […]
BAEC barrier function was then assessed in the following manner: 3.0 ml of BAEC-covered microcarrier beads at a density of 40,000 beads per milliliter were aliquotted into a 4.5 ml test vial in duplicate. […]
This assay procedure uses colorimetry to measure TBA dye absorbance by the beads. […]

In the case of `NC[C@H](O)c1ccc(O)c(O)c1` [norepinephrine], the “stress fibers within endothelial cells” value (endothelial cells) is given as “stimulate the assembly of stress fibers” and the endothelial cell movement (endothelial cell) is given as “inhibit endothelial cell movement”.

For `NCCc1c[nH]c2ccc(O)cc12` [serotonin], the “stress fibers within endothelial cells” value (endothelial cells) is listed as “stimulate the assembly of stress fibers” and the endothelial cell movement (endothelial cell) is listed as “inhibit endothelial cell movement”.

In the case of `C=C1[C@@H](C)[C@H]2[C@H](Cc3ccccc3)NC(=O)[C@]23OC(=O)/C=C/[C@H](O)CCC[C@@H](C)C/C=C/[C@H]3[C@@H]1O` [cytochalasin B], the “permeability for plasma proteins after disruption of endothelial actin cytoskeleton” value [1] is given as “increase in permeability for plasma proteins”.

For `CC(C)[C@@H]1NC(=O)[C@H](Cc2ccccc2)NC(=O)[C@H](Cc2ccccc2)NC(=O)[C@@H]2CCCN2C(=O)[C@@H]2CCCN2C(=O)[C@H](Cc2ccccc2)NC(=O)[C@H](Cc2ccccc2)NC(=O)[C@H](C)NC(=O)[C@@H]2CCCN2C(=O)[C@@H]2CCCN2C1=O` [Phallin A, antamanide] (cyclo(AFFPPFFVPP)), the “protection of the liver” value ([2]; administered in therapeutic doses) is given as “protecting the liver completely”, the “annulling toxic effects of fatal doses of phalloidin” value ([2]; in vivo) is given as “capable of annulling the toxic effects of fetal doses of phalloidin; also recorded: capable at very low dosage of counteracting the effects of an absolutely fatal dose of phalloidin” and the “cell surface area and cell perimeter” value ([3]; BAEC at 50% confluency, 1 uM, 30 minutes) is given as “increased surface area and cell perimeter”. For the same compound, the cell proliferation ([3]; BAEC, 1.0 uM, FIG. 1) was “do not alter in proliferation”, the “ratio of cell perimeter to cell area (roundness)” value ([3]; BAEC, 1.0 uM, FIG. 1) was “diminishes” and the “cell shape (flattening and border extension)” value ([3]; BAEC, 1.0 uM, FIG. 1, comparable to other agents and controls) was “substantial flattening and border extension”. For the same compound, the “toxicity to cultured endothelial cells” value ([3]; concentrations of 10^-6 to 10^-7 M) was “non-toxic” and the “endothelial cell barrier function / resistance to permeability (TBA uptake)” value [4] was “markedly increases cell barrier function”.

In the case of `NCCc1c[nH]cn1` [histamine], the “stress fibers within endothelial cells” value (endothelial cells) is given as “produces stress fiber disassembly” and the endothelial cell movement (endothelial cell) is given as “inhibit endothelial cell movement”.
